{"source": "patent US20220218664A1", "about": "“DRUG AND METHOD FOR TREATING OR PREVENTING COMPLICATIONS FROM DIABETES, USING SAID DRUG” (TMS Co., Ltd., priority 2019, published 2022)", "format_in_all_cases": "in vivo, C57BL/6J male mice", "key": {"[1]": {"tested_on": "streptozotocin-induced diabetic mice", "experiment": "Hind plantar blood flow (laser perfusion imager)", "method": "(§1) 9-week-old C57BL/6J male mice were purchased and familiarized with an animal facility for 1 week. 200 mg/kg of streptozotocin (streptozotocin; STZ) was administered […] into the peritoneal cavity of 10-week-old mice to prepare streptozotocin-induced diabetic mice (hereinafter also referred to as “STZ administration week 0”). One week after the administration of streptozotocin, blood was collected from the tail vein of the mice, and the blood glucose level (BS) was measured using an automatic blood glucose measuring device (product name: Medisafe (trademark) Mini GR-102, made by Terumo (Co)). Mice having a blood glucose level of 400 mg/dL or more were determined to be diabetic mice.\n(§2) The SMTP-44D groups, the edaravone group, and the pregabalin group were administered SMTP-44D (0.3 mg/kg, 3 mg/kg, or 30 mg/kg doses, respectively), edaravone (10 mg/kg dose), or pregabalin (10 mg/kg dose) into the peritoneal cavity once a day for 3 consecutive weeks from the day following the first week to the fourth week after STZ administration.\nThe hind plantar blood flows (perfusion unit: PU) of the above-mentioned STZ group, SMTP-44D groups, edaravone group, pregabalin group, and control group mice were measured under isoflurane anesthesia using a full-field laser perfusion imager."}, "[2]": {"tested_on": "streptozotocin-induced diabetic mice", "experiment": "Sciatic nerve blood flow", "details": "4th week", "method": "as §1, §2\n(§3) Sciatic nerves of the above-mentioned STZ group, SMTP-44D groups, edaravone group, pregabalin group, and control group mice on the 4th week were exposed under isoflurane anesthesia, and then, using the full-field laser perfusion imager, their sciatic nerve blood flows (perfusion unit: PU) were measured. After the sciatic nerve blood flows were measured, a voltage was output from a PowerLab through the […] to impart an electrical stimulus to the sciatic nerves using needle electrodes. The electrical stimulus went through the Analog Stimulus Isolator via recording electrodes attached to the gastrocnemius and was input into the PowerLab, and thus neuromuscular function response curves were measured. The sciatic nerves were stimulated between two points at 8-mm intervals. The sciatic nerve conduction velocity (m/s) was calculated by dividing the […]. The sciatic nerve blood flow and sciatic nerve conduction velocity were measured using a Hot-1 small-sized heating controller and small-sized body temperature retention device (model number: […]-1), maintaining the rectal temperature at 37° C. The measurement results are described in Table 11."}, "[3]": {"tested_on": "TNF-α", "experiment": "Inflammatory cytokine TNF-α in sciatic nerve (ELISA)", "details": "30 mg/kg i.p. once a day, 4th week", "method": "as §1, §2\nThe sciatic nerves of the above-mentioned STZ group, SMTP-44D group (30 mg/kg), edaravone group, pregabalin group, and control group mice on the 4th week were homogenized using the RIPA buffer containing a protease inhibitor cocktail. Moreover, centrifugation was conducted at 4° C. for 15 minutes at 10,000 g, and the supernatant was collected and used for measuring TNF-α concentration (pg/mL), IL-1β concentration (pg/mL), IL-6 concentration (pg/mL), and total protein concentration (μg/mL), respectively. An ELISA assay kit was used for the TNF-α, IL-1β, and IL-6 concentrations. The total protein concentration was measured by using a Pierce (trademark) BCA Protein Assay Kit. The inflammatory cytokine level (pg/mg protein) in the total protein was calculated from the TNF-α concentration (pg/mL), IL-1β concentration (pg/mL), and IL-6 concentration (pg/mL), and total protein concentration (μg/mL)."}, "[4]": {"tested_on": "streptozotocin-induced diabetic mice", "experiment": "Sciatic nerve conduction velocity", "details": "4th week", "method": "as §1, §2, §3"}, "[5]": {"tested_on": "streptozotocin-induced diabetic mice", "experiment": "Von Frey test: evaluating mechanical stimulus", "method": "as §1, §2\nThe above-mentioned STZ group, SMTP-44D groups, edaravone group, pregabalin group, and control group mice were put in grid-like boxes, respectively, and were familiarized for one hour. After the familiarization, by using a Dynamic Plantar Aesthesiometer (tactometer) (manufactured by UGO BASILE Inc.), 1 g/s (that, pressurization increased by 1 g per second) of stimulation was imparted to the hind legs of these mice to measure mechanical thresholds (g) from the start of stimulation to the time when the mice withdrew their legs. The measurements were conducted for both hind legs three times at intervals of three minutes or longer, respectively. A mean value of three mechanical thresholds (g) was calculated for 1 mouse, and then a mean value of the 12 mice for the respective groups was found."}, "[6]": {"tested_on": "streptozotocin-induced diabetic mice", "experiment": "Thickness and G-ratio of myelin in the sciatic nerve", "details": "30 mg/kg i.p. once a day, 4th week", "method": "as §1, §2\nThe above-mentioned STZ group, SMTP-44D (30 mg/kg) group, edaravone group, pregabalin group, and control group mice in the 4th week were dissected to remove the sciatic nerves. The sciatic nerves were fixed using neutral buffered formalin and embedded using an Epon resin, and then semi-thin segments were formed and dyed using toluidine blue. The cross sections of the sciatic nerves in the respective specimens were examined using a microscope equipped with a digital camera at 400× magnification. The thickness of myelin ((diameter of axon including myelin diameter of axon)/2) and G-ratio (diameter of axon/diameter of axon including myelin) were measured."}, "[7]": {"tested_on": "malondialdehyde: MDA", "experiment": "Oxidative stress (MDA, TBARS assay) in sciatic nerve", "details": "30 mg/kg i.p. once a day, 4th week", "method": "as §1, §2\nThe sciatic nerves of the above-mentioned STZ group, SMTP-44D group (30 mg/kg), edaravone group, pregabalin group, and control group mice in the 4th week were homogenized using an RIPA buffer containing a protease inhibitor cocktail. Moreover, centrifugation was conducted at 4° C. for 15 minutes at 1600 g, and the supernatant was collected and used for measuring MDA (μM) and total protein concentration (μg/mL), respectively. MDA was measured using a TBARS Assay Kit. The total protein concentration was measured using a Pierce (Trademark) BCA Protein Assay Kit. Oxidative stress levels (nmol/mg protein) were calculated from MDA (μM) and the total protein concentration (μg/mL)."}, "[8]": {"details": "0.3 mg/kg i.p. once a day, 0th week (before dosing)"}, "[9]": {"details": "0.3 mg/kg i.p. once a day, 1st week (before dosing)"}, "[10]": {"details": "0.3 mg/kg i.p. once a day, 2nd week"}, "[11]": {"details": "0.3 mg/kg i.p. once a day, 3rd week"}, "[12]": {"details": "0.3 mg/kg i.p. once a day, 4th week"}, "[13]": {"details": "3 mg/kg i.p. once a day, 0th week (before dosing)"}, "[14]": {"details": "3 mg/kg i.p. once a day, 1st week (before dosing)"}, "[15]": {"details": "3 mg/kg i.p. once a day, 2nd week"}, "[16]": {"details": "3 mg/kg i.p. once a day, 3rd week"}, "[17]": {"details": "3 mg/kg i.p. once a day, 4th week"}, "[18]": {"details": "30 mg/kg i.p. once a day, 0th week (before dosing)"}, "[19]": {"details": "30 mg/kg i.p. once a day, 1st week (before dosing)"}, "[20]": {"details": "30 mg/kg i.p. once a day, 2nd week"}, "[21]": {"details": "30 mg/kg i.p. once a day, 3rd week"}, "[22]": {"details": "30 mg/kg i.p. once a day, 4th week"}}, "note": "Where “and” joins values, the source holds several entries; their conditions need not be identical. Equal values may be shown once."}
{"molecule": "CC(C)=CCCC(C)=CCCC1(C)Oc2c(c(O)cc3c2CN(C(C(=O)O)c2ccc(O)cc2)C3=O)CC1O", "note": "(stereo not drawn) [SMTP-44D]", "values": [{"measurement": "Hind plantar blood flow", "setting": "[1]; [8]", "result": "199.8±9.8", "unit": "PU"}, {"measurement": "Hind plantar blood flow", "setting": "[1]; [9]", "result": "150.7±9.4", "unit": "PU"}, {"measurement": "Hind plantar blood flow", "setting": "[1]; [10]", "result": "152.9±8.7", "unit": "PU"}, {"measurement": "Hind plantar blood flow", "setting": "[1]; [11]", "result": "141.0±8.7", "unit": "PU"}, {"measurement": "Hind plantar blood flow", "setting": "[1]; [12]", "result": "132.3±6.6", "unit": "PU"}, {"measurement": "Hind plantar blood flow", "setting": "[1]; [13]", "result": "210.7±14.1", "unit": "PU"}, {"measurement": "Hind plantar blood flow", "setting": "[1]; [14]", "result": "154.8±12.8", "unit": "PU"}, {"measurement": "Hind plantar blood flow", "setting": "[1]; [15]", "result": "169.3±7.9", "unit": "PU"}, {"measurement": "Hind plantar blood flow", "setting": "[1]; [16]", "result": "161.3±11.8", "unit": "PU"}, {"measurement": "Hind plantar blood flow", "setting": "[1]; [17]", "result": "162.1±9.8", "unit": "PU"}, {"measurement": "Hind plantar blood flow", "setting": "[1]; [18]", "result": "201.4±6.8", "unit": "PU"}, {"measurement": "Hind plantar blood flow", "setting": "[1]; [19]", "result": "142.7±7.1", "unit": "PU"}, {"measurement": "Hind plantar blood flow", "setting": "[1]; [20]", "result": "185.0±8.4", "unit": "PU"}, {"measurement": "Hind plantar blood flow", "setting": "[1]; [21]", "result": "234.7±11.2", "unit": "PU"}, {"measurement": "Hind plantar blood flow", "setting": "[1]; [22]", "result": "214.9±12.2", "unit": "PU"}, {"measurement": "Sciatic nerve blood flow", "setting": "[2]; 0.3 mg/kg i.p. once a day", "result": "1116.9±30.4", "unit": "PU"}, {"measurement": "Sciatic nerve blood flow", "setting": "[2]; 3 mg/kg i.p. once a day", "result": "1187.1±31.4", "unit": "PU"}, {"measurement": "Sciatic nerve blood flow", "setting": "[2]; 30 mg/kg i.p. once a day", "result": "1461.0±55.0", "unit": "PU"}, {"measurement": "TNF-α", "setting": "[3]", "result": "15.22±2.51", "unit": "pg/mg protein"}, {"measurement": "Sciatic nerve conduction velocity", "setting": "[4]; 0.3 mg/kg i.p. once a day", "result": "54.9±1.2", "unit": "m/s"}, {"measurement": "Sciatic nerve conduction velocity", "setting": "[4]; 3 mg/kg i.p. once a day", "result": "56.9±2.8 m/s and 56.9 ± 28 m/s"}, {"measurement": "Sciatic nerve conduction velocity", "setting": "[4]; 30 mg/kg i.p. once a day", "result": "63.8±2.0", "unit": "m/s"}, {"measurement": "von Frey test mechanical threshold", "setting": "[5]; [8]", "result": "5.2 ± 0.1", "unit": "g"}, {"measurement": "von Frey test mechanical threshold", "setting": "[5]; [9]", "result": "4.1 ± 0.1", "unit": "g"}, {"measurement": "von Frey test mechanical threshold", "setting": "[5]; [10]", "result": "3.5 ± 0.2", "unit": "g"}, {"measurement": "von Frey test mechanical threshold", "setting": "[5]; [11]", "result": "3.7 ± 0.1", "unit": "g"}, {"measurement": "von Frey test mechanical threshold", "setting": "[5]; [12]", "result": "3.6 ± 0.2", "unit": "g"}, {"measurement": "von Frey test mechanical threshold", "setting": "[5]; [13]", "result": "4.9 ± 0.2", "unit": "g"}, {"measurement": "von Frey test mechanical threshold", "setting": "[5]; [14]", "result": "4.2 ± 0.1", "unit": "g"}, {"measurement": "von Frey test mechanical threshold", "setting": "[5]; [15]", "result": "4.0±0.1 g and 4.0 ± 0.1 ##− g"}, {"measurement": "von Frey test mechanical threshold", "setting": "[5]; [16]", "result": "3.9 ± 0.2", "unit": "g"}, {"measurement": "von Frey test mechanical threshold", "setting": "[5]; [17]", "result": "4.0 ± 0.1", "unit": "g"}, {"measurement": "von Frey test mechanical threshold", "setting": "[5]; [18]", "result": "4.9 ± 0.1", "unit": "g"}, {"measurement": "von Frey test mechanical threshold", "setting": "[5]; [19]", "result": "3.9 ± 0.2", "unit": "g"}, {"measurement": "von Frey test mechanical threshold", "setting": "[5]; [20]", "result": "5.4 ± 0.1", "unit": "g"}, {"measurement": "von Frey test mechanical threshold", "setting": "[5]; [21]", "result": "5.3 ± 0.1", "unit": "g"}, {"measurement": "von Frey test mechanical threshold", "setting": "[5]; [22]", "result": "5.2 ± 0.1", "unit": "g"}, {"measurement": "Thickness of myelin", "setting": "[6]", "result": "1.58±0.02", "unit": "μm"}, {"measurement": "MDA (oxidative stress)", "setting": "[7]", "result": "1.98±0.51", "unit": "nmol/mg protein"}]}
